The target in one test is T1, hERG ion channel (Homo sapiens, UniProt Q12809).
T1 construct: host or cells: HEK293
As to the kind of experiment: hERG ion channel inhibition, manual patch clamp in HEK293 cells. Type of test: cell-based. To be noted: HEK293 cells stably expressing hERG, read-out: hERG(IC50, manupatch). As for the experimental part: This experiment used manual patch clamp electrophysiology to detect the inhibitory effect of compounds on hERG ion channels, and evaluated cardiac safety based on the single concentration inhibition rate or IC50 size of the compounds.
The cells used in this experiment are HEK293 cell lines transfected with hERG cDNA and stably expressing hERG channels (#60187, provided by BPS, P3-P23 generations are used for experimental research). Cells were cultured in a medium containing the following components: MEM medium, 10% (v/v) inactivated fetal bovine serum, 1 mM sodium pyruvate, […] geneticin, 0.1 mM non-essential amino acids, and 100 U penicillin-streptomycin. HEK293 hERG cells were grown in culture flasks containing the above culture medium and cultured in an incubator at 37° C. and 5% CO2. […]
The electrophysiological experiments were performed by a manual patch clamp system (HEKAEPC-10 signal amplifier and digital conversion system, purchased from HEKA Electronics, Germany) to record the whole-cell current. […] After the hERG current recorded in the above steps reaches stability under continuous perfusion of extracellular fluid in the recording tank, different concentrations of the test compound can be perfused until the inhibitory effect of the drug on the hERG current reaches a stable state. […]

Test [1] addresses T2, His6-Flag-TEV-NLRP3 (134-1036) (Homo sapiens, UniProt Q96P20).
T2 construct: fused on or other part: N-terminal His6 tag, Flag tag and TEV cleavage site
As to the kind of experiment: NLRP3 fluorescence polarization (FP) binding assay, competition with probe NP3-301. To be noted: competition with NP3-301 for binding to NLRP3 (134-1036), 30 nM protein. The method in brief: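 Compound was preincubated 60 min at room temperature with NLRP3 protein (30 nM final) in 50 mM Hepes pH 7.4, 150 mM NaCl, 2.5 mM MgCl2, 1 mM TCEP, 100 μM ATP. Probe NP3-301 (0.5 nM final) was then added for 30 min. Fluorescence polarization was read at ex 485/em 535 nm, and IC50 was obtained by four-parameter logistic fit.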

The test system of test [2] is IL-1β secretion of THP-1 cells. Kind of test: Effect of NLRP3 inhibitor on IL-1β secretion of THP-1 cells (AlphaLISA). The format is cell-based. To be noted: Homo sapiens; PMA, LPS and Nigericin stimulated THP-1 cells, IL-1β in supernatant; read-out: IC50 (nM), THP-1 cells to detect NLRP3 inhibitors. The method, then: This experiment used the PerkinElmer AlphaLISA_human_IL1β kit (AL220 C/F). The detection buffer was RPMI-1640+10FBS. AlphaLISA Immunoassay Buffer, AlphaLISA Anti-IL1β Acceptor beads, Streptavidin (SA)-coated Donor beads, and Biotinylated Antibody Anti-IL1β were all included in the kit.
The density of THP1 cells was adjusted to 4×10^5 cells/mL, PMA (final concentration 50 nM) was added, inoculated into 96-well flat-bottom plates at 200 μL/well, and stimulated overnight at 37° C., 5% CO2 (try to <16h). The next day, the supernatant was discarded, and the flat washed twice with DPBS ([…]/time). Then LPS solution (final concentration of 100 ng/ml) was added at 198 μL/well, incubated at 37° C., 5% CO2 for 3h. 1 μL of the corresponding concentration of compounds was added to each well according to the experimental MAP, incubated at 37° C., 5% CO2 for 1 h. 1 μL Nigericin (final concentration of […]) was added to each well, incubated overnight at 5% CO2 (>18h). On the third day, 5 μL of supernatant was taken, diluted 20 times, and the content of IL-Iβ in the supernatant was detected by Human Interleukin 1 beta (IL1β) Kit. Envision was used to read the AlphaLISA test value of Ex=680/[…]. GraphPad Prism 9.5.0 was used to analyze the data, and the IC50 value of the compound for IL-Iβ antagonism was fitted by four-parameter Logistic.

pIC50: −log10 of the molar value.

The pIC50 is the IC50 on a negative log10 scale, so that one unit is a factor of ten. For orientation: IC50 means the concentration needed to halve the response being measured.

T1 sequence (Q12809 whole entry): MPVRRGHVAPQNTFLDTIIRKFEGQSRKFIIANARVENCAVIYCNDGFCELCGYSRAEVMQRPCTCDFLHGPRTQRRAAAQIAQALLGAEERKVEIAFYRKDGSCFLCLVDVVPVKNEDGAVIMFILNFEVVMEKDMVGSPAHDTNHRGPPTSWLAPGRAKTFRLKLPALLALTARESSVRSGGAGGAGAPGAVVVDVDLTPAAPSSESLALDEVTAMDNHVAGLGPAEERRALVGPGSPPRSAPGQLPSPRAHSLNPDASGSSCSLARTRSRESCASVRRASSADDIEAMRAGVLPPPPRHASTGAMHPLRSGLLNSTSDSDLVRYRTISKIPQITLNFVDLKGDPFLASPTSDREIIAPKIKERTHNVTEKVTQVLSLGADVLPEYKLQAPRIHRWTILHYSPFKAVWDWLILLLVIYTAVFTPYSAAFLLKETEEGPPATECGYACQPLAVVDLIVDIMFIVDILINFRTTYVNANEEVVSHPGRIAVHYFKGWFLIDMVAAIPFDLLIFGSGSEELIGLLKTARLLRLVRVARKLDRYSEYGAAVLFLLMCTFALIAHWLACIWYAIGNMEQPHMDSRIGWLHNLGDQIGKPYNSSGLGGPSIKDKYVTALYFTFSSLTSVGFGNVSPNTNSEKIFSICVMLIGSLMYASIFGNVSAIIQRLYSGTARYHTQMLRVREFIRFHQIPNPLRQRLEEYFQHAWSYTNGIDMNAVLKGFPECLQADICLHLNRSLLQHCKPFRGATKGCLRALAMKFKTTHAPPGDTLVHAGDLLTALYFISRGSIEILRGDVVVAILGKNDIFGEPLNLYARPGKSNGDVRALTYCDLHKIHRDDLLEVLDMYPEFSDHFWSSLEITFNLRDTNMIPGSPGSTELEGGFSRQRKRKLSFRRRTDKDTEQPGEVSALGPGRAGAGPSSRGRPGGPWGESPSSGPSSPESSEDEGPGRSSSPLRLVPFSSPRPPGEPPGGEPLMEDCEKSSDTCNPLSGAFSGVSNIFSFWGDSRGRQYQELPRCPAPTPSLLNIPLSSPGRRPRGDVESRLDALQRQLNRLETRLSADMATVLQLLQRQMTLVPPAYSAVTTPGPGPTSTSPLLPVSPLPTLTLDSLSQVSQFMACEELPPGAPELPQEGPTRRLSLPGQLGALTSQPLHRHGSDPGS
T2 sequence (Q96P20 134-1036 limits assumed): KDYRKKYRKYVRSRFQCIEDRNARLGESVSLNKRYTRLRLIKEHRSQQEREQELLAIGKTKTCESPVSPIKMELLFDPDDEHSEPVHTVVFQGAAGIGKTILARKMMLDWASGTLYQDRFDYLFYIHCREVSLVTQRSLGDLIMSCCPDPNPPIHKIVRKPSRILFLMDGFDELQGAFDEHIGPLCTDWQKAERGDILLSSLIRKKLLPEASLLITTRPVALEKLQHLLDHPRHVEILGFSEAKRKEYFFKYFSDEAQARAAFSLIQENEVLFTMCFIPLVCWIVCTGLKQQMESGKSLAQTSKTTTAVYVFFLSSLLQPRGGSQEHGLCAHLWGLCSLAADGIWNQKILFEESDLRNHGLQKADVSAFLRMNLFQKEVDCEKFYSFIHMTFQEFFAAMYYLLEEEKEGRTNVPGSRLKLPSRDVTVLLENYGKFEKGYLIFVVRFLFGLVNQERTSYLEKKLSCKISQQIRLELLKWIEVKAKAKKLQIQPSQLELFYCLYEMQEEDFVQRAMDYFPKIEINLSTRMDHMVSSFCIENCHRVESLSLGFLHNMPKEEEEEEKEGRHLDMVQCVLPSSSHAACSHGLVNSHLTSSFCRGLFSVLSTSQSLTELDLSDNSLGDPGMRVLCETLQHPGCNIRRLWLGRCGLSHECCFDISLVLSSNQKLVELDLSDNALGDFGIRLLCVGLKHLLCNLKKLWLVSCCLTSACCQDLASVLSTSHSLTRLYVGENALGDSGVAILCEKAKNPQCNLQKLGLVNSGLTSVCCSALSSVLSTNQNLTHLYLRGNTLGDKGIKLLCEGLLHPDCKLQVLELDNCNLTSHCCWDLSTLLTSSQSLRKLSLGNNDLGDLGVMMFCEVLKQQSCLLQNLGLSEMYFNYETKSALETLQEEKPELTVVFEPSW

As for `Cc1cc(C(F)(F)F)cc(O)c1-c1ccc2oc(N3CCS(=O)(=O)CC3)nc2n1` [Compound 384], the results for the pIC50 (at hERG ion channel; in test [1]) were less than 4.52 and not below 7.00, respectively. For the same compound, in test [2], the IC50 is less than 50 nM.

The values are drawn from patent US20260234150A1, “COMPOUND FOR INHIBITING NLRP3, PREPARATION METHOD, AND USE” (DOVETREE MEDICINES UNUS, INC., priority 2023, published 2026).
